Data published in ChEMBL document CHEMBL5696442, “Discovery of type II inhibitors of TGFβ-activated kinase 1 (TAK1) and mitogen-activated protein kinase kinase kinase kinase 2 (MAP4K2)” (J Med Chem, 2015).
Activity calls are given as the source filed them. No cut-off for these calls is given here.

What was measured:
[1] = target: Serine/threonine-protein kinase 38 (Homo sapiens) (UniProt Q15208); experiment: Inhibition of NDR1 Lys1 labeling site in human Huh-7 cells at 1 uM by KiNativ Profiling analysis relative to control; format: cell-based
Chain of Serine/threonine-protein kinase 38 (Homo sapiens) (Q15208 2-465 limits assumed): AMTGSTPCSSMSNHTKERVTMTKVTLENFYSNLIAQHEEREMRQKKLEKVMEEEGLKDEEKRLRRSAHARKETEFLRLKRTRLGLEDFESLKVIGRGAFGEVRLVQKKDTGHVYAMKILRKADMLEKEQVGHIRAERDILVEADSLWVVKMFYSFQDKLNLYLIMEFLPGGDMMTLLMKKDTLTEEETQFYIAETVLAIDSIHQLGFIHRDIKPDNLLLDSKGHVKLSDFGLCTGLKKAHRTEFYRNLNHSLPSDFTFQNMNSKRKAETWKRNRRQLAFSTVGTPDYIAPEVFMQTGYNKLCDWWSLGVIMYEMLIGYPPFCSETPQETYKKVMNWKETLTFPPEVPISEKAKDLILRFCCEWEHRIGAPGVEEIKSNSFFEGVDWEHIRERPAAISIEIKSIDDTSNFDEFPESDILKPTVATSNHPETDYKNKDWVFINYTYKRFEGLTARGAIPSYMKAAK

[2] = target: Serine/threonine-protein kinase 10 (Homo sapiens) (UniProt O94804); experiment: Inhibition of LOK Lys2 labeling site harbouring DLKAGNVLMTLEGDIR in human Huh-7 cell lysate at 1 uM by KiNativ Profiling analysis relative to control; format: subcellular
Chain of Serine/threonine-protein kinase 10 (Homo sapiens) (O94804 whole entry, looked up): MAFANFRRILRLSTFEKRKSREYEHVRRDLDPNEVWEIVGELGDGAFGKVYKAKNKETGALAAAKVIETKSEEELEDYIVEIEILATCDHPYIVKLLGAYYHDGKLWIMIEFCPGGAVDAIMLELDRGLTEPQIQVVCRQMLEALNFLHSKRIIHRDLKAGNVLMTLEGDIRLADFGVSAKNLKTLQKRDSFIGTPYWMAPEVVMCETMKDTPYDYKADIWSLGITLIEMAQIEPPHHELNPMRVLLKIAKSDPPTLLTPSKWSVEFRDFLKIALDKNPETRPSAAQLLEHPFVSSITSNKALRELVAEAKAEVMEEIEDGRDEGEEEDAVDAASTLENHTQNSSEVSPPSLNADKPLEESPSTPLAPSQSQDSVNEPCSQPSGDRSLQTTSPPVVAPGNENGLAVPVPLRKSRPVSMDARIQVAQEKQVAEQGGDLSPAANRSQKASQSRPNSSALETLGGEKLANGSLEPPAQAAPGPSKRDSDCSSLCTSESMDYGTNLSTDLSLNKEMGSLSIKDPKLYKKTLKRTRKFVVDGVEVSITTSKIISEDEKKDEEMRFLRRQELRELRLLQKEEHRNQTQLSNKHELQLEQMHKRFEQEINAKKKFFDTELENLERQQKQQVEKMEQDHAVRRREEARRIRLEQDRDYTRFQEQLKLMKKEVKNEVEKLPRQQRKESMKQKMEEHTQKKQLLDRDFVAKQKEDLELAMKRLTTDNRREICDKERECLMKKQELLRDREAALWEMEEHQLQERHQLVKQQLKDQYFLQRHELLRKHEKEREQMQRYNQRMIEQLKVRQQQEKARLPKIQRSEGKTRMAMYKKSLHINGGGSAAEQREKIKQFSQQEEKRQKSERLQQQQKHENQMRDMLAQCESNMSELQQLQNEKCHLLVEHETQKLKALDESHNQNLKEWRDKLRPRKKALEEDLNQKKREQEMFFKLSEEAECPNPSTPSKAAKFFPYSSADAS

[3] = target: T1, Serine/threonine-protein kinase TAO1 (Homo sapiens) (UniProt Q7L7X3); experiment: Inhibition of TAO1 Lys2 labeling site in human Huh-7 cells at 1 uM by KiNativ Profiling analysis relative to control; format: cell-based
T1 sequence (whole entry): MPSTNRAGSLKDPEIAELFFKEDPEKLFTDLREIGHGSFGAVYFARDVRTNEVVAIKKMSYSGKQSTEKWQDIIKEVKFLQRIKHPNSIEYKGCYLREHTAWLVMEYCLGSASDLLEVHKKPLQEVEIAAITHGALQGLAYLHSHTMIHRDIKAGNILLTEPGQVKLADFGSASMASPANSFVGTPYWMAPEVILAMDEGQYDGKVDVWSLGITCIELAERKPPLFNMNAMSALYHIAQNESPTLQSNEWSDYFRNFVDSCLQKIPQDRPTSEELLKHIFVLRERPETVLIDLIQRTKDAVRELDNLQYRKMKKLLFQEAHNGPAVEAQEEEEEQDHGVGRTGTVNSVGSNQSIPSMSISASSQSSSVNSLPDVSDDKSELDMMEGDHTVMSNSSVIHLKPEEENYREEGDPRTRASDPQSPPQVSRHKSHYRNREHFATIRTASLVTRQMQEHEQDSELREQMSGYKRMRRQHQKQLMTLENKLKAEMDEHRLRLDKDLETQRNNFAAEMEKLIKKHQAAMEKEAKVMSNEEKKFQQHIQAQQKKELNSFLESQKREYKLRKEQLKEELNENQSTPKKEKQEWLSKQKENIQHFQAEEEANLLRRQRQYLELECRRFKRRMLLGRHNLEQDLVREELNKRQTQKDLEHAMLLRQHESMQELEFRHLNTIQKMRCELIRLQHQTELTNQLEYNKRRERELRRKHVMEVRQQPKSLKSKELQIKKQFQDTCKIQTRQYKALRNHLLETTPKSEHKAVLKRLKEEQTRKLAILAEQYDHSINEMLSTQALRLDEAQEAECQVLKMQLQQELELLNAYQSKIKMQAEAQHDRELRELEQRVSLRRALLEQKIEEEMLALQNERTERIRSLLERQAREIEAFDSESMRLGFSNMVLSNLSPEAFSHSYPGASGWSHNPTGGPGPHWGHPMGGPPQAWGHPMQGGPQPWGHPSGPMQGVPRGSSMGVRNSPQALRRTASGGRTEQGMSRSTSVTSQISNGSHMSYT

[4] = target: Ribosomal protein S6 kinase alpha-3 (Homo sapiens) (UniProt P51812); experiment: Inhibition of RSK2 domain1 ATP labeling site in human Huh-7 cell lysate at 1 uM by KiNativ Profiling analysis relative to control; format: subcellular
[5] = target: T2, Phosphatidylinositol 5-phosphate 4-kinase type-2 beta (Homo sapiens) (UniProt P78356); experiment: Inhibition of PIP4K2B ATP labeling site harbouring AKDLPTFKDNDFLNEGQK in human Huh-7 cell lysate at 1 uM by KiNativ Profiling analysis relative to control; format: subcellular
T2 sequence (whole entry): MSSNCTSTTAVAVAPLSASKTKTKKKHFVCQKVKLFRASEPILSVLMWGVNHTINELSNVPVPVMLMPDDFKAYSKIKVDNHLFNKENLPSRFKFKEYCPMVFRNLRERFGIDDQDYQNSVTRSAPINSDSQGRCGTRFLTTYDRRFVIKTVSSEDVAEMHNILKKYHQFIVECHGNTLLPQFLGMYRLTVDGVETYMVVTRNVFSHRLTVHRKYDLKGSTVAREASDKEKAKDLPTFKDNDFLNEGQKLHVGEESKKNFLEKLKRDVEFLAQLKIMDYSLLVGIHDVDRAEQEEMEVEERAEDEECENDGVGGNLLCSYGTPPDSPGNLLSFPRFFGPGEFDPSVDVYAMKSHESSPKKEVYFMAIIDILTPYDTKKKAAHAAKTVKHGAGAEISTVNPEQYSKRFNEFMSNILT

[6] = target: T3, Serine/threonine-protein kinase Chk1 (Homo sapiens) (UniProt O14757); experiment: Inhibition of CHK1 Lys2 labeling site in human Huh-7 cells at 1 uM by KiNativ Profiling analysis relative to control; format: cell-based
T3 sequence (whole entry): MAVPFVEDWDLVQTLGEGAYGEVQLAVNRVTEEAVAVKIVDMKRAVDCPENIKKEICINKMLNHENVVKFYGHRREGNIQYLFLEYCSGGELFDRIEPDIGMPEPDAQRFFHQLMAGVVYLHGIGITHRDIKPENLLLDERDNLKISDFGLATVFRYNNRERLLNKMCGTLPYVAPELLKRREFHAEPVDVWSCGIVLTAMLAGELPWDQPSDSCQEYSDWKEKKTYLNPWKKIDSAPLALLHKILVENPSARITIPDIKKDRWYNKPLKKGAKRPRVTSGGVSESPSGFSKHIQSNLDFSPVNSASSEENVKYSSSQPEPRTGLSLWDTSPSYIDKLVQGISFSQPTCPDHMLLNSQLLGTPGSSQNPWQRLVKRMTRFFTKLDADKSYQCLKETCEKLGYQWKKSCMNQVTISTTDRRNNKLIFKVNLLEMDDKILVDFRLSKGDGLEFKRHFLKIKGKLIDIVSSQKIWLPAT

[7] = target: Megakaryocyte-associated tyrosine-protein kinase (Homo sapiens) (UniProt P42679); experiment: Inhibition of CTK (unknown origin) at 1 uM by Ambit Kinomescan binding assay relative to control; values are per cent of control
Chain of Megakaryocyte-associated tyrosine-protein kinase (Homo sapiens) (P42679 whole entry): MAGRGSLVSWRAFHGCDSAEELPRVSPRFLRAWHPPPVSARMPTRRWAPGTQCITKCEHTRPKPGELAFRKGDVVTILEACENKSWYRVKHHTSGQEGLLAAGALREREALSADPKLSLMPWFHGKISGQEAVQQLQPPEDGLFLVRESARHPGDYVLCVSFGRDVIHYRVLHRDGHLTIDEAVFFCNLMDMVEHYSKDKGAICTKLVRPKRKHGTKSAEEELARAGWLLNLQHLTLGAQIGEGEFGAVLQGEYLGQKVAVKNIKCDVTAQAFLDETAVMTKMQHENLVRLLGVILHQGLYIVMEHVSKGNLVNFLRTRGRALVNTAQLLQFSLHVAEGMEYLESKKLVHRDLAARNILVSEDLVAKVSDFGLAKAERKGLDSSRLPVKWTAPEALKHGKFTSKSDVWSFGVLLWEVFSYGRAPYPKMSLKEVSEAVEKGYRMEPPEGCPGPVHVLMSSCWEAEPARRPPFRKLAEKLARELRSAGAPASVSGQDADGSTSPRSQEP

[8] = test system: Hepatocyte growth factor receptor (Homo sapiens), P08581 [M1250T]; experiment: Inhibition of MET M1250T mutant (unknown origin) at 1 uM by Ambit Kinomescan binding assay relative to control
Chain of Hepatocyte growth factor receptor (Homo sapiens), P08581 [M1250T] (P08581 whole entry M1250T): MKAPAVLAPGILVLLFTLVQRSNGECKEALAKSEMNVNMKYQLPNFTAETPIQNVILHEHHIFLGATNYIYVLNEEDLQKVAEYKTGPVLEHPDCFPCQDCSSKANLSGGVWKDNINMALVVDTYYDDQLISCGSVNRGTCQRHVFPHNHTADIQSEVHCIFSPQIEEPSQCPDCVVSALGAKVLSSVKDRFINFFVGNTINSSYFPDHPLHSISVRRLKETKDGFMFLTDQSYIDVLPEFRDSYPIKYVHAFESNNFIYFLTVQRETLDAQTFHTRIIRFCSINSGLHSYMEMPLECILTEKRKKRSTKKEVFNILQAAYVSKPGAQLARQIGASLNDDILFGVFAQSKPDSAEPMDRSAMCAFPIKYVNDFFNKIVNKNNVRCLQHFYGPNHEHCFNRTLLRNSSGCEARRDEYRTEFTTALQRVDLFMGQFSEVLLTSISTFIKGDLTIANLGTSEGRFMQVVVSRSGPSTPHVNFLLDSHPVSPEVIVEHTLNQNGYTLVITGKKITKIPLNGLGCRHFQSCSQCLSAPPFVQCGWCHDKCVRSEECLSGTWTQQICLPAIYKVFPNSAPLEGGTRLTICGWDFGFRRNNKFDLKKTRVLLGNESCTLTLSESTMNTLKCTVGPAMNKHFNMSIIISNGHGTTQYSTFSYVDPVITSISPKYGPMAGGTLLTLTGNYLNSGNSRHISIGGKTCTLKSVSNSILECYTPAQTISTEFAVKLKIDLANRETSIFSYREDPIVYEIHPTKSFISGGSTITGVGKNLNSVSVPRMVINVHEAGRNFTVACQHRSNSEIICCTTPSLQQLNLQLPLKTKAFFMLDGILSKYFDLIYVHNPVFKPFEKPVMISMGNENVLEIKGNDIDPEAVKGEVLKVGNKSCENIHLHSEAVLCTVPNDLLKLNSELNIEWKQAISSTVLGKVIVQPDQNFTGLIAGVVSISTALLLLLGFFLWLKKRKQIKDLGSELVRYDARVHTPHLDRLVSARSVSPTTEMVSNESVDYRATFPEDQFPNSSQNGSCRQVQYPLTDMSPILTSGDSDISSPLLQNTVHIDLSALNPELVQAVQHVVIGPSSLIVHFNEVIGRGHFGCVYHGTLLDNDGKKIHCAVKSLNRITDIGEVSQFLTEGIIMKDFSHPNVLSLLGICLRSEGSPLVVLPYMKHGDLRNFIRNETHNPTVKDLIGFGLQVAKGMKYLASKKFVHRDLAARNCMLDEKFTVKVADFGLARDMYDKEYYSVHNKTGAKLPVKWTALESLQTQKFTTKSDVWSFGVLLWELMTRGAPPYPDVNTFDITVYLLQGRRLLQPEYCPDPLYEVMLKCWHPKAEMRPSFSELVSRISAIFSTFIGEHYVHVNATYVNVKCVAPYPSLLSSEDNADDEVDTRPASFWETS

[9] = target: Serine/threonine-protein kinase 38-like (Homo sapiens) (UniProt Q9Y2H1); experiment: Inhibition of NDR2 Lys2 labeling site in human A-375 cells at 5 uM by KiNativ Profiling analysis relative to control; format: cell-based
Chain of Serine/threonine-protein kinase 38-like (Homo sapiens) (Q9Y2H1 2-464 limits assumed): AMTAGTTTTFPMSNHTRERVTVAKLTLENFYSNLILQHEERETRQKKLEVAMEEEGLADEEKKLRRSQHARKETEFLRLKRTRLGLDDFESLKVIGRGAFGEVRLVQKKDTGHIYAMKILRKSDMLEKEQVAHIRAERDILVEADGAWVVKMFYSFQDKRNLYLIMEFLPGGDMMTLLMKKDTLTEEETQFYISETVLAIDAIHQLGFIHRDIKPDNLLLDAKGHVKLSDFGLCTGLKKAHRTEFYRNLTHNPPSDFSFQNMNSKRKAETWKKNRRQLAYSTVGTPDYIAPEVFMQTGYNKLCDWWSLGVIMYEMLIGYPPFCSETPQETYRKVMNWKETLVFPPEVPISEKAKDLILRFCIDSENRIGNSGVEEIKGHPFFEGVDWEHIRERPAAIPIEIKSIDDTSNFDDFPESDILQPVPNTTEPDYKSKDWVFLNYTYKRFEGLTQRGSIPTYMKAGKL

[10] = Inhibition of KHS1/2 K2 labeling site in human Huh-7 cells at 10 uM by KiNativ Profiling analysis relative to control; conditions: condition cancer
RAW = experiment: Inhibition of LPS induced p105 phosphorylation in mouse RAW cells preincubated for 1 hr followed by LPS stimulation and measured after 30 mins by Western blot analysis; format: functional, cell-based; conditions: dose 0.01-10 µM
[11] = target: LIM domain kinase 2 (Homo sapiens) (UniProt P53671); experiment: Inhibition of LIMK2 (unknown origin) at 10 uM by Ambit Kinomescan binding assay
Chain of LIM domain kinase 2 (Homo sapiens) (P53671 whole entry, looked up, the tested form may be a part): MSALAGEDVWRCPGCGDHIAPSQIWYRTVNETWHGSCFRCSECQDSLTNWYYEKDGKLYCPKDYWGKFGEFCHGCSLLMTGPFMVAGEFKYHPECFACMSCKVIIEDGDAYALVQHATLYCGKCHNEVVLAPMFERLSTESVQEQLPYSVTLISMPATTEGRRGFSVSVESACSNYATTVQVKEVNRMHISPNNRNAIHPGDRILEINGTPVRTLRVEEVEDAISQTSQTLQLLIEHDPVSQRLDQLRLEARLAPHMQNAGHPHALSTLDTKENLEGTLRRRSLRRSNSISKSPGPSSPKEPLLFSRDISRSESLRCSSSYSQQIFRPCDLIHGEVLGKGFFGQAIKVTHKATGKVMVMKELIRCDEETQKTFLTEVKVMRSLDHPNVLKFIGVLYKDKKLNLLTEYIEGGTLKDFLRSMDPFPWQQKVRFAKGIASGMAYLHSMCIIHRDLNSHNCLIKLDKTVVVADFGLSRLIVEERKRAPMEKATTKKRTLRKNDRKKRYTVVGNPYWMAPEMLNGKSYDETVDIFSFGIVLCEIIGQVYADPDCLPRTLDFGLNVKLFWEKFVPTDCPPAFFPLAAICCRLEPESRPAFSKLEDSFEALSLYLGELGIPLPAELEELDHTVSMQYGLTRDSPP

[12] = target: Serine/threonine-protein kinase RIO2 (Homo sapiens) (UniProt Q9BVS4); experiment: Inhibition of RIOK2 (unknown origin) at 10 uM by Ambit Kinomescan binding assay
Chain of Serine/threonine-protein kinase RIO2 (Homo sapiens) (Q9BVS4 whole entry, looked up): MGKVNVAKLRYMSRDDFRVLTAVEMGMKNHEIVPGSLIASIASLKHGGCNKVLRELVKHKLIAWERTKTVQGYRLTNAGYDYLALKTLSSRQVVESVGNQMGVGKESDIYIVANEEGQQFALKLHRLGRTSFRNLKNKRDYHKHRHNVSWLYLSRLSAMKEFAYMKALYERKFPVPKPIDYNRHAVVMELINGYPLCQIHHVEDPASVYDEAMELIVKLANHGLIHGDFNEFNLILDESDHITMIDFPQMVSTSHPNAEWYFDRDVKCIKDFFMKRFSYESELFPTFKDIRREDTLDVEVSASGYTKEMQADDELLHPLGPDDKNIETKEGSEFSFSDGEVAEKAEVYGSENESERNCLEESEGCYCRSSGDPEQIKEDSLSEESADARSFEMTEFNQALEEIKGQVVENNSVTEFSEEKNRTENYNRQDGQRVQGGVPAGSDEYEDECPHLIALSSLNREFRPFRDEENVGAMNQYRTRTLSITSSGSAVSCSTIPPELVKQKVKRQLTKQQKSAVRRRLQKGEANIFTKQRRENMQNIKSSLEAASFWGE

## CNc1cc(Oc2cc(C(=O)Nc3cc(N4CCN(C)CC4)cc(C(F)(F)F)c3)ccc2C)ncn1
[1]
  inhibition: 16.4%
[2]
  inhibition: -8.9%
[3]
  inhibition: 0.4%
[4]
  inhibition: -2.6%
[5]
  inhibition: -5.5%
[6]
  inhibition: 22.5%

## CCN1CCN(Cc2ccc(NC(=O)c3ccc(C)c(/C=C/c4cnc5[nH]ccc5c4OC)c3)cc2C(F)(F)F)CC1
[7]
  residual activity: 60%
[8]
  inhibition: 74%
[9]
  inhibition: 20.9%

## CCN1CCN(Cc2ccc(NC(=O)c3ccc(C)c(Oc4ccnc5[nH]ccc45)c3)cc2C(F)(F)F)CC1
[10]
  inhibition at 10 µM: 6.6%
RAW
  inhibition: Dose-Dependent Effect
[11]
  inhibition: inactive
[12]
  inhibition: inactive
